This note sets out measurements from US20050089554A1, “Apparatus and method for enhancing transdermal drug delivery” (priority 2003, published 2005).

SMILES strings stand for the structures.

Series [1] in a line: Desmopressin flux through skin (microprojection solid film system and gel pack), from urinary excretion of tritium. The series is classed as in vivo, HGPs. Particulars: 5 mg tritiated desmopressin solid film, 2% HEC gel pack; 1 h and 24 h; FIG. 20. On the procedure: An experiment was conducted to test the concept of the hydratable system using the peptide desmopressin. A system similar to that presented in Example 2 was provided.
The system included a 2 cm^2 solid film containing 5 mg tritiated desmopressin. The thin film was prepared by casting a 20 mil thick aqueous solution comprised of 10 wt. % HPMC 2910 USP and 20 wt. % glycerol. The film was dried and punched into 2 cm^2 discs. Each disc was imbibed with a 20 wt. % ^3H desmopressin solution and subsequently dried. The solid film was subsequently disposed proximate the top surface of the microprojection member. The gel pack or gel reservoir contained 0.120 mL of 2% HEC (NATROSOL® 250 HHX) in water.
(§1) Following application of the microprojection solid film system in HGPs, the gel pack was placed on top of the microprojection member, as illustrated in FIG. 12. At 1 h and 24 h after application, three (3) systems from each group of HGPs were removed and the residual drug washed form the skin. The amount of the drug penetrated during these times intervals was determined by measuring urinary excretion of tritium (previous studies had shown that in HGPs, 71% of ^3H desmopressin injected intravenously is excreted in urine).

A short description of series [2]: Urinary excretion of 3H desmopressin injected intravenously (previous studies). The series is classed as in vivo. Conditions: hairless, urine, iv, total radioactivity, injected intravenously in HGPs, read-out: fraction excreted in urine. The procedure:
as §1

As to `NC(=O)CC[C@@H]1NC(=O)[C@H](Cc2ccccc2)NC(=O)[C@H](Cc2ccc(O)cc2)NC(=O)CCSSC[C@@H](C(=O)N2CCC[C@H]2C(=O)N[C@H](CCCN=C(N)N)C(=O)NCC(N)=O)NC(=O)[C@H](CC(N)=O)NC1=O` [desmopressin], the “flux through the skin, time dependence” value in series [1] was “time dependant flux”. The dose excreted in series [2] came out at 71%.
